Assay results reported in publication PMC9788418, “Design, Synthesis and Biological Evaluation of Syn and Anti-like Double Warhead Quinolinones Bearing Dihydroxy Naphthalene Moiety as Epidermal Growth Factor Receptor Inhibitors with Potential Apoptotic Antiproliferative Action” (Molecules, 2022).

How the values were obtained:
Assay type in all cases: cell-based, human
[1] = Cell viability assay (MTT) on normal cell line; details: human, MCF-10A mammary gland epithelial cells, four days
Procedure: A cell viability test was performed using MCF-10A (human mammary gland epithelial) cell line to investigate the effect of 4a–e and 7a–e on normal cell lines. In this investigation, a concentration of 50 µM of the studied compound is employed for four days, after which cell viability is assessed.
(§1) 4.2. Biological evaluation
4.2.1. Cytotoxic activity using MTT Assay and evaluation of IC50
MTT assay was carried out to study the effect of compounds on mammary epithelial cells (MCF-10A). The medium in which cells were propagated contained Dulbecco's modified Eagle's medium (DMEM)/ Ham's F-12 medium (1:1) supplemented with epidermal growth factor (20 ng/mL), hydrocortisone (500 ng/mL), insulin (10 μg/mL), 2 mM glutamine and 10% foetal calf serum. After every 2-3 days, the cells were passaged using trypsin ethylenediamine tetra acetic acid (EDTA). The cells were seeded at a density of 10^4 cells mL-1 in flat-bottomed culture plates containing 96 wells each. After 24 h, medium was removed from the plates and the compounds in (in 0.1% DMSO) were added (in 200 μL medium to yield a final concentration of 0.1% v/v) to the wells of plates. A single compound was designated with four wells followed by incubation of plates for 96h at 37°C. After incubation, medium was removed completely from the plates followed by addition of MTT (0.4 mg/mL in medium) to each well and subsequent incubation of plates for 3h. MTT (along with the medium) was removed and DMSO (150μL) was added to each well of the culture plates, followed by vortexing and subsequent measurement of absorbance (at 540 nm) using microplate reader. […]

[2] = system: Panc-1 (pancreas cancer cell line); assay: Antiproliferative assay; details: Homo sapiens, PANC-1; read-out: Antiproliferative Activity IC50 ± SEM, Panc-1
Procedure: as §1
4.2.1. Cytotoxic activity using MTT Assay and evaluation of IC50 […]
cells were seeded at a density of 10^4 cells mL-1 in flat-bottomed culture plates containing 96 wells each. After 24 h, medium was removed from the plates and the compounds in (in 0.1% DMSO) were added (in 200 μL medium to yield a final concentration of 0.1% v/v) to the wells of plates. A single […]
incubation, medium was removed completely from the plates followed by addition of MTT (0.4 mg/mL in medium) to each well and subsequent incubation of plates for 3h. MTT (along with the medium) was removed and DMSO (150μL) was added to each well of the culture plates, followed by vortexing and subsequent measurement of absorbance (at 540 nm) using microplate reader. The data […]
(§2) 4.2.1.2. Assay for antiproliferative effect
(§3) To explore the antiproliferative potential of compounds MTT assay was performed according to previously reported procedure using different cell lines to explore the antiproliferative potential of compounds propidium iodide fluorescence assay was performed using different cell lines. To calculate the total nuclear DNA, a fluorescent dye (propidium iodide, PI) is used which can attach to the DNA, thus offering a quick and precise technique. PI cannot pass through the cell membrane and its signal intensity can be considered as directly proportional to quantity of cellular DNA. Cells whose cell membranes are damaged or have changed permeability are counted as dead ones. The assay was performed by seeding the cells of different cell lines at a density of 3000-7500 cells/well (in 200µl […]
(§4) atmospheric conditions. The medium was removed; the compounds were added to the plates at 10 µM concentrations (in 0.1% DMSO) in triplicates, followed by incubation for 48 h. DMSO (0.1%) was used as control. After incubation, medium was removed followed by the addition of PI (25 µl, 50µg/mL in water/medium) to each well of the plates. At -80 °C, the plates were allowed to freeze for 24 h, followed by thawing at 25 °C. A fluorometer (Polar-Star BMG Tech) was used to record the readings at excitation and emission wavelengths of 530 and 620 nm for each well. The percentage cytotoxicity of compounds was calculated using the following formula:
(§5) Where ATC= Absorbance of treated cells and AC= Absorbance of control. […]
(§6) positive control in the assay.

[3] = system: A-549 (epithelial cancer cell line); assay: Antiproliferative assay; details: Homo sapiens, A549; read-out: Antiproliferative Activity IC50 ± SEM, A-549
Procedure: as §2, §3, §4, §5, §6

[4] = system: MCF-7 (breast cancer cell line); assay: Antiproliferative assay; details: Homo sapiens, MCF7; read-out: Antiproliferative Activity IC50 ± SEM, MCF-7
Procedure: as §2, §3, §4, §5, §6

[5] = system: HT-29 (colon cancer cell line); assay: Antiproliferative assay; details: Homo sapiens, read-out: Antiproliferative Activity IC50 ± SEM, HT-29
Procedure: as §2, §3, §4, §5, §6

[6] = system: four tested cancer cell lines (A-549, MCF-7, Panc-1, HT-29); assay: Antiproliferative assay, average over the four cell lines; details: for GI50: Homo sapiens, mean of the four cancer cell lines; for fold less potent than 4a (GI50): relative to 4a
Procedure: The newly synthesized compounds were tested for antiproliferative activity against four different types of cancer cells: A-549 (epithelial cancer cell line), MCF-7 (breast cancer cell line), Panc-1 (pancreas cancer cell line), and HT-29 (colon cancer cell line).
After 24 h, medium was removed from the plates and the compounds in (in 0.1% DMSO) were added (in 200 μL medium to yield a final concentration of 0.1% v/v) to the wells of plates. A single compound was designated with four wells followed by incubation of plates for 96h at 37°C. After incubation, medium was removed completely from the plates followed by addition of MTT (0.4 mg/mL in medium) to each well and subsequent incubation of plates for 3h. MTT (along with the medium) was removed and DMSO (150μL) was added to each well of the culture plates, followed by vortexing and subsequent measurement of absorbance (at 540 nm) using microplate reader. The data are shown as percentage inhibition of proliferation in comparison with controls containing 0.1% 4.2.1.2. Assay for antiproliferative effect
To explore the antiproliferative potential of compounds MTT assay was performed according to previously reported procedure using different cell lines to explore the antiproliferative potential of compounds propidium iodide fluorescence assay was performed using different cell lines. To calculate the total nuclear DNA, a fluorescent dye (propidium iodide, PI) is used which can attach to the DNA, thus offering a quick and precise technique. PI cannot pass through the cell membrane and its signal intensity can be considered as directly proportional to quantity of cellular DNA. Cells whose cell membranes are damaged or have changed permeability are counted as dead ones. The assay was performed by seeding the cells of different cell lines at a density of 3000-7500 cells/well (in 200µl medium) in culture plates followed by incubation for 24h at 37 °C in humidified 5% CO2/95% air atmospheric conditions. The medium was removed; the compounds were added to the plates at 10 µM concentrations (in 0.1% DMSO) in triplicates, followed by incubation for 48 h. DMSO (0.1%) was used as control. After incubation, medium was removed followed by the addition of PI (25 µl, 50µg/mL in water/medium) to each well of the plates. At -80 °C, the plates were allowed to freeze for 24 h, followed by thawing at 25 °C. A fluorometer (Polar-Star BMG Tech) was used to record the readings at excitation and emission wavelengths of 530 and 620 nm for each well. The percentage cytotoxicity of compounds was calculated using the following formula:
Where ATC= Absorbance of treated cells and AC= Absorbance of control. Erlotinib was used as positive control in the assay.

| SMILES | viability at 96 h, 50 µM [1] | IC50 [2] | IC50 [3] | IC50 [4] | IC50 [5] | GI50 [6] | fold less potent than 4a (GI50) [6] |
| --- | --- | --- | --- | --- | --- | --- | --- |
| Cn1c(=O)cc(-n2cc(COc3cccc4cccc(OCc5cn(-c6cc(=O)n(C)c7ccccc67)nn5)c34)nn2)c2ccccc21 [Compound 4e, 4,4′-(((naphthalene-1,8-diylbis(oxy))bis(methylene))bis(1H-1,2,3-triazole-4,1-diyl))-bis-(1-methylquinolin-2(1H)-one)] | 90% | 135 ± 13 nM | 123 ± 12 nM | 127 ± 12 nM | 137 ± 13 nM | 130 nM | approximately 4 fold |
| Cc1ccc2[nH]c(=O)cc(-n3cc(COc4cccc5c(OCc6cn(-c7cc(=O)[nH]c8ccc(C)cc78)nn6)cccc45)nn3)c2c1 [Compound 7b, 4,4′-(((naphthalene-1,5-diylbis(oxy))bis(methylene))bis(1H-1,2,3-triazole-4,1-diyl))-bis-(6-methylquinolin-2(1H)-one)] | 93% | 67 ± 6 nM | 63 ± 6 nM | 65 ± 6 nM | 67 ± 6 nM | 65 nM | – |
| Cn1c(=O)cc(-n2cc(COc3cccc4c(OCc5cn(-c6cc(=O)n(C)c7ccccc67)nn5)cccc34)nn2)c2ccccc21 [Compound 7e, 4,4′-(((naphthalene-1,5-diylbis(oxy))bis(methylene))bis(1H-1,2,3-triazole-4,1-diyl))-bis-(1-methylquinolin-2(1H)-one)] | 85% | 136 ± 13 nM | 126 ± 13 nM | 130 ± 13 nM | 143 ± 14 nM | 134 nM | approximately 4 fold |
| C#Cc1cccc(Nc2ncnc3cc(OCCOC)c(OCCOC)cc23)c1 [Erlotinib, reference compound] | – | – | – | – | – | 33 nM | – |
